Experimental data as given in patent publication US10420744B2, “Composition of chlorogenic acid and methods of making and using the same in treating serum lipid levels” (Vidya Herbs, Inc., priority 2014, dated 2019).
Marks after values point to notes of the source that are not given here.

Tested on: high fat diet fed rats
Assay: Anti-obesity activity, high fat diet in rats
Type: in vivo, Wistar rats
Conditions: Group III: high fat diet + orlistat 30 mg/kg
Procedure: Objective: The objective was to investigate the effect of the CGA-7 complex against high fat diet fed rats. Model: High fat diet in rats […] Male Wistar rats were divided into six groups with six animals in each group. [table] Body weight was measured once every 2 days. Food intake was measured daily for 42 days. On day 43, all the animals were kept overnight fasting before sacrifice. Blood was collected by puncturing the retro orbital plexus. Serum was separated by centrifugation at 3000 rpm for 10 minutes. Serum was estimated for glucose, cholesterol, triglycerides and HDL. LDL and atherogenic index were also calculated. Liver, mesenteric, brown adipose tissue (BAT), left and right perirenal fat pads, left and right epididymal pads were isolated and weighed. Liver was isolated and estimated for liver triglycerides and cholesterol levels.

CCCCCCCCCCC[C@@H](C[C@@H]1OC(=O)[C@H]1CCCCCC)OC(=O)[C@H](CC(C)C)NC=O [orlistat, Orlistat]
liver cholesterol: 49.66 ± 3.28***^b | liver triglycerides: 64.64 ± 3.44***^b | Average food intake (42 days): 8.54 ± 0.40^nsb g/rat | BAT (42 days): 0.19 ± 0.01**^b | Difference in body weight (42 days): 88.01 ± 3.68***^b | Epididymal fat pad Left (42 days): 0.50 ± 0.01**^b | Epididymal fat pad Right (42 days): 0.48 ± 0.01*^b | Liver organ weight (42 days): 3.47 ± 0.11***^b | Mesenteric fat (42 days): 0.98 ± 0.03*^b | Peri renal fat pad tissue Left (42 days): 0.61 ± 0.05*^b | Peri renal fat pad tissue Right (42 days): 0.65 ± 0.04*^b | Initial weight (baseline, in g (unit assumed)): 130.3 ± 0.56 | Atherogenic Index (calculated): 2.20 ± 0.20***^b | serum Glucose (day 43): 109.7 ± 3.93**^b mg/dL | serum HDL-c (day 43): 20.47 ± 1.08*^b mg/dL | serum Total cholesterol (day 43): 63.38 ± 0.95***^b mg/dL | serum Triglyceride (day 43): 77.63 ± 4.27***^b mg/dL | serum LDL-c (day 43, calculated): 27.39 ± 1.07^nsb mg/dL | Final weight (male Wistar rats, 42 days, in g (unit assumed)): 218.4 ± 2.65
